US20230095836A1, “SUBSTITUTED 5,6-DIPHENYL-3(2H)-PYRIDAZINONES FOR USE AS FUNGICIDES” (FMC Corporation, priority 2020, published 2023)

Assays:
Type in all cases: in vivo
[1] = test system: Zymoseptoria tritici; assay: Test A: test solution sprayed on wheat seedlings, inoculated next day with Zymoseptoria tritici (wheat leaf blotch); disease rating (100 = 100% disease control, 0 = no control; dash = not tested)
In short: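 Preventive spray test: compound applied to run-off one day before spore inoculation of wheat seedlings. Incubation was 48 h saturated humidity at 24° C followed by 17 days at 20° C. Disease then scored 0–100 as % control versus untreated plants.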

[2] = test system: Puccinia recondita f. sp. tritici; assay: Test B: test solution sprayed on wheat seedlings, inoculated next day with Puccinia recondita f. sp. tritici (wheat leaf rust); disease rating (100 = 100% disease control, 0 = no control; dash = not tested)
From the text: The resulting test suspensions were then used in Tests A-F. The test solution was sprayed to the point of run-off on wheat seedlings. […] A rating of 100 indicates 100% disease control and a rating of 0 indicates no disease control (relative to the controls). A dash (—) indicates the compound was not tested.

[3] = test system: Blumeria graminis f. sp. tritici; assay: Test C: test suspension sprayed on wheat seedlings, inoculated next day with Blumeria graminis f. sp. tritici (wheat powdery mildew); visual disease rating (100 = 100% disease control, 0 = no control; dash = not tested)
In short: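 Visual ratings of disease control (0–100, relative to controls) were made 8 days after inoculation with B. graminis f. sp. tritici spore dust. Plants were held at 20 °C. Compound was applied as a spray to run-off one day before inoculation.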

[4] = test system: Phakopsora pachyrhizi; assay: Test D: test solution sprayed on soybean seedlings, inoculated next day with Phakopsora pachyrhizi (Asian soybean rust); visual disease rating (100 = 100% disease control, 0 = no control; dash = not tested)
In short: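 Preventive spray test: soybean seedlings treated to run-off with ppm-level suspensions (acetone/water 50/50, 250 ppm PEG400), spore-inoculated one day later. Held 24 h at 22 °C in saturated air, then 8 days at 22 °C; disease control scored visually versus untreated plants, 0 = none, 100 = complete.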

[5] = test system: Botrytis cinerea; assay: Test E: test suspension sprayed on tomato seedlings, inoculated next day with Botrytis cinerea (tomato Botrytis); visual disease rating (100 = 100% disease control, 0 = no control; dash = not tested)
In short: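 Spores were applied one day after spraying the seedlings to run-off. Incubation was 48 h saturated at 20° C, then 3 days in a 24° C growth chamber. Visual ratings, relative to untreated controls, run from 0 (no control) to 100 (complete control).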

[6] = test system: Alternaria solani; assay: Test F: test suspension sprayed on tomato seedlings, inoculated next day with Alternaria solani (tomato early blight); visual disease rating (100 = 100% disease control, 0 = no control; dash = not tested)
In short: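 Visual ratings of % disease control versus controls were made after inoculated plants spent 48 h at 27° C. in saturated air plus 3 days at 20° C. The compound suspension had been sprayed to run-off one day before spore inoculation.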

Structure (SMILES)	Test A disease control rating ([1]; 250 ppm) [%]	Test B disease control rating ([2]; 250 ppm) [%]	Test C disease control rating ([3]; 250 ppm) [%]	Test D disease control rating ([4]; 250 ppm) [%]	Test E disease control rating ([5]; 250 ppm) [%]	Test F disease control rating ([6]; 250 ppm) [%]	Test A disease control rating ([1]; 50 ppm) [%]	Test B disease control rating ([2]; 50 ppm) [%]	Test C disease control rating ([3]; 50 ppm) [%]	Test D disease control rating ([4]; 50 ppm) [%]	Test E disease control rating ([5]; 50 ppm) [%]	Test F disease control rating ([6]; 50 ppm) [%]
Cn1nc(-c2ccc(F)cc2Cl)c(-c2ccc(F)cc2Cl)c(C(=O)O)c1=O [Compound 144]	0	0	0	74	0	0						
Cn1nc(-c2cccc(F)c2Cl)c(-c2ccc(F)cc2Cl)c(Cl)c1=O [Compound 145]							100	100	100	99	100	100
COc1cccc(-c2nn(C)c(=O)c(OC)c2-c2ccc(F)cc2Cl)c1Cl [Compound 146]							100	100	100	96	98	99
CCOC(=O)c1c(-c2ccc(F)cc2Cl)c(-c2ccc(F)cc2Cl)nn(C)c1=O [Compound 153]	0	0	96	71	0	0						
COc1c(-c2ccc(F)cc2Cl)c(-c2cccc(F)c2Cl)nn(C)c1=O [Compound 154]							100	100	100	87	100	100
COc1cc(OC)c(F)c(-c2nn(C)c(=O)c(Cl)c2-c2ccc(F)cc2Cl)c1 [Compound 155]							99	100	100	100	100	100
Cn1nc(-c2ccc(F)cc2Br)c(-c2ccc(F)cc2Cl)c(Cl)c1=O [Compound 156]							99	100	99	96	100	87
COc1cc(F)c(Cl)c(-c2nn(C)c(=O)c(Cl)c2-c2ccc(F)cc2Cl)c1 [Compound 157]							98	100	100	100	99	100
COc1cc(F)cc(-c2nn(C)c(=O)c(Cl)c2-c2ccc(F)cc2Cl)c1Br [Compound 158]							100	100	100	100	99	99
COc1cc(F)c(Br)c(-c2nn(C)c(=O)c(Cl)c2-c2ccc(F)cc2Cl)c1 [Compound 159]							100	100	99	100	99	100
COc1c(-c2ccc(F)cc2Cl)c(-c2ccccc2Cl)nn(C)c1=O [Compound 160]							100	100	100	73	99	0
Cc1c(-c2ccc(F)cc2Cl)c(-c2cc(O)ccc2Cl)nn(C)c1=O [Compound 161]							98	99	100	99	96	47
COc1c(-c2ccc(F)cc2Cl)c(-c2ccc(F)cc2Br)nn(C)c1=O [Compound 162]							100	89	98	13	99	16
COc1ccc(-c2nn(C)c(=O)c(Cl)c2-c2ccc(F)cc2Cl)c(F)c1 [Compound 163]							100	100	78	77	100	99
COc1cc(F)c(Cl)c(-c2nn(C)c(=O)c(OC)c2-c2ccc(F)cc2Cl)c1 [Compound 164]							100	100	99	100	99	100
COc1cc(F)c(Br)c(-c2nn(C)c(=O)c(OC)c2-c2ccc(F)cc2Cl)c1 [Compound 165]							100	100	99	92	95	100
COc1ccc(-c2nn(C)c(=O)c(OC)c2-c2ccc(F)cc2Cl)c(F)c1 [Compound 166]							100	91	79	0	95	67
CCc1c(-c2ccc(F)cc2Cl)c(-c2ccc(F)cc2Cl)nn(C)c1=O [Compound 167]							100	100	100	0	86	100
Cn1nc(-c2ccc(F)cc2Cl)c(-c2ccc(F)cc2Cl)c(CO)c1=O [Compound 168]							100	96	72	0	81	0
COc1cc(OC)c(Cl)c(-c2nn(C)c(=O)c(C)c2-c2ccc(F)cc2Cl)c1Cl [Compound 169]							37	68	43	0	93	0
Cn1nc(-c2ccc(F)cc2Cl)c(-c2ccc(F)cc2Cl)c(CCl)c1=O [Compound 170]							99	89	76	0	51	80
Cn1nc(-c2ccc(F)cc2Cl)c(-c2ccc(F)cc2Cl)c(CF)c1=O [Compound 171]							99	99	99	0	100	96
Cn1nc(-c2ccc(F)cc2Cl)c(-c2ccc(F)cc2Cl)c(CO)c1=O [Compound 172]	79	92	87	78	83	0						
CCOc1ccc(Cl)c(-c2nn(C)c(=O)c(C)c2-c2ccc(F)cc2Cl)c1 [Compound 175]							100	100	99	100	98	100
CON(C)C(=O)c1c(-c2ccc(F)cc2Cl)c(-c2ccc(F)cc2Cl)nn(C)c1=O [Compound 176]	4	80	0	0	0	0						
Cn1nc(-c2ccc(F)cc2Cl)c(-c2ccc(F)cc2Cl)c(CC#N)c1=O [Compound 177]							88	80	0	0	0	0
CCc1c(-c2c(F)cccc2F)c(-c2cccc(OC)c2Cl)nn(C)c1=O [Compound 178]							100	100	100	100	93	100
